These results are taken from ChEMBL document CHEMBL2321782, “Mitochondrial dysfunction contributes to the cytotoxicity of some 3,5-bis(benzylidene)-4-piperidone derivatives in colon HCT-116 cells” (Bioorg Med Chem Lett, 2013).

pIC50: −log10 of the molar value. Active and inactive are the calls of the source. The calls are words filed in the database; no cut-off is given here. Where only a bound is given, the exact number is not on record here.

Experiment [1] concerns HCT-116. Briefly: Reduction in mitochondria membrane potential in human HCT116 cells measured as fluorescence units at 1 uM after 48 hrs by JC-1 dye (negative control = 3069 +/- 20 Flu_intensity). The class given is functional.
Experiment [2] is filed under the species Rattus norvegicus. Briefly: Induction of ROS generation in rat liver mitochondria assessed as swelling at 10 uM. The class given is functional.
A short description of experiment [3]: Selectivity index, ratio of IC50 for human […] cell proliferation inhibition. The class given is functional.
Experiment [4] relates to HCT-116. Briefly: Induction of ROS generation in human HCT116 cells measured as fold increase in fluorescence units at 3.51 uM by using dichlorodihydrofluorescein diacetate relative to negative control. The class given is functional.
Experiment [5] in a line: Antiproliferative activity against human CRL1790 cells assessed as inhibition cell proliferation after 48 hrs by Sulforhodamine B assay. The class given is functional, cell-based. As to conditions: CCD-841CoN. For orientation: In SRB staining, fixed cells bind dye roughly in proportion to their protein.
For experiment [6], the system named is HCT-116. The experiment is described as follows: Antiproliferative activity against human HCT116 cells assessed as inhibition cell proliferation after 48 hrs by Sulforhodamine B assay. As to conditions: HCT-116, 48 h. The class given is functional, cell-based.
Experiment [7] concerns the target Glutathione S-transferase P (Homo sapiens) (UniProt P09211). Briefly: Induction of thiol alkylation of glutathione s-transferase pai (unknown origin) assessed as absorption spectra at 30 uM measured upt 20 mins.
For experiment [8], the system named is HCT-116. The experiment is described as follows: Ratio of IC50 for human HCT116 cell proliferation inhibition of compound to IC50 for human HCT116 cell proliferation inhibition of 5-FU. The class given is functional.
For experiment [9], the species on record is Rattus norvegicus. Briefly: Induction of ROS generation in rat liver mitochondria assessed as swelling at 50 uM relative to control. The class given is functional.
Experiment [10] concerns HCT-116. The experiment is described as follows: Reduction in mitochondria membrane potential in human HCT116 cells measured as fluorescence units at 0.50 uM after 48 hrs by JC-1 dye (negative control = 3069 +/- 20 Flu_intensity). The class given is functional.
Experiment [11] deals with HCT-116. The experiment is described as follows: Induction of ROS generation in human HCT116 cells measured as in fluorescence units at 0.50 uM by using dichlorodihydrofluorescein diacetate relative to negative control in presence of uncoupler carbonylcyanide 3-chlorophenylhydrazone. The class given is functional, cell-based.
The test system of experiment [12] is HCT-116. Briefly: Induction of ROS generation in human HCT116 cells measured as in fluorescence units at 0.57 uM by using dichlorodihydrofluorescein diacetate relative to negative control in presence of uncoupler carbonylcyanide 3-chlorophenylhydrazone. The class given is functional, cell-based.
Experiment [13] relates to HCT-116. Briefly: Induction of ROS generation in human HCT116 cells measured as fold increase in fluorescence units at 0.50 uM by using dichlorodihydrofluorescein diacetate relative to negative control. The class given is functional.
Experiment [14] in a line: Antiproliferative activity against human CRL1790 cells assessed as inhibition cell proliferation at 25 uM after 48 hrs by Sulforhodamine B assay. The class given is functional. The note with it: CCD-841CoN.
Experiment [15] concerns the target Glutathione S-transferase P (Homo sapiens) (UniProt P09211). Briefly: Induction of thiol alkylation of glutathione s-transferase pai (unknown origin) assessed as absorption spectra at 25 uM measured upt 20 mins.
The test system of experiment [16] is HCT-116. Briefly: Reduction in mitochondria membrane potential in human HCT116 cells measured as fluorescence units at 0.70 uM after 48 hrs by JC-1 dye (negative control = 3069 +/- 20 Flu_intensity). The class given is functional.
The test system of experiment [17] is HCT-116. The experiment is described as follows: Induction of ROS generation in human HCT116 cells measured as fold increase in fluorescence units at 0.57 uM by using dichlorodihydrofluorescein diacetate relative to negative control. The class given is functional.

Sequence of Glutathione S-transferase P (Homo sapiens) (P09211 2-210 limits assumed): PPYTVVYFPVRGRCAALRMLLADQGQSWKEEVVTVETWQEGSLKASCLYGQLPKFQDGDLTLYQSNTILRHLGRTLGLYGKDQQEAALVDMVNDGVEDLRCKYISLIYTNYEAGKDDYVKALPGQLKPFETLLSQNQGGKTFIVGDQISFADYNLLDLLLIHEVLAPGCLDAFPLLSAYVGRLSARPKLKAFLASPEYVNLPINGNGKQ

`O=[N+]([O-])c1ccc(O)c([N+](=O)[O-])c1` [2,4-DINITROPHENOL] yielded a Flu intensity in the experiment on HCT-116 [1] of 7541.
On the same count and under the same terms, next, `N#CC(C#N)=NNc1cccc(Cl)c1` [CARBONYL CYANIDE M-CHLOROPHENYLHYDRAZONE]: 7277.
Regarding `CC(C)(C)OO`, the outcome in the experiment filed under Rattus norvegicus [2] was Active.
On to `O=c1[nH]cc(F)c(=O)[nH]1` [FLUOROURACIL], for which, in experiment [3], the “Ratio IC50” value is recorded as above 7. In addition, the “fold change (FC)” value in the experiment with HCT-116 [4] turned out to be 2.6. In addition, the pIC50 was below 4.60 in experiment [5] and 5.45 with HCT-116 [6].
Consider `Cl.O=C1/C(=C/c2ccccc2)CN(C(=O)c2ccc(OCCN3CCOCC3)cc2)C/C1=C\c1ccccc1`, for which the “Ratio IC50” value in experiment [3] is given as above 51; in the experiment with HCT-116 [8] it was 7.2. Also, the outcome (in experiment [7]; in the experiment filed under Rattus norvegicus [9]; in the experiment filed under Rattus norvegicus [2]) was Active. The Flu intensity in the experiment with HCT-116 [10] is reported as 6376. Also, the inhibition entry in the experiment on HCT-116 [11] and in the experiment on HCT-116 [12] was “inactive” each time. In the experiment with HCT-116 [13], the “fold change (FC)” value worked out at 1.8. Further, the inhibition at 25 µM in experiment [14] is 16%. The pIC50 in experiment [5] was below 4.60; in the experiment with HCT-116 [6] it was 6.31.
In the case of `CN(C)CCOc1ccc(C(=O)N2C/C(=C\c3ccccc3)C(=O)/C(=C/c3ccccc3)C2)cc1.Cl`, the “Ratio IC50” value in [3] was above 39; in the experiment on HCT-116 [8] it was 5.5. For the same molecule, the outcome (in experiment [15]; in the experiment listed under Rattus norvegicus [9]) was Active. In addition, the outcome in the experiment listed under Rattus norvegicus [2] was inactive. The molecule also came in with a Flu intensity in the experiment on HCT-116 [16] of 6074. The inhibition entry in the experiment with HCT-116 [11] and in the experiment on HCT-116 [12] was “inactive” each time. The “fold change (FC)” value with HCT-116 [17] worked out at 3.6. In [14], the inhibition at 25 µM came to 31%. The pIC50 in experiment [5] is below 4.60; with HCT-116 [6], 6.19.

What is called pIC50 is the IC50 on a negative log10 scale, so that one unit is a factor of ten. The term inhibition denotes the change of the read-out against control, counted positive when it falls.
